{"source": "paper PMC11475281", "about": "“A Novel Liver Cancer-Selective Histone Deacetylase Inhibitor Is Effective against Hepatocellular Carcinoma and Induces Durable Responses with Immunotherapy” (ACS Pharmacology & Translational Science, 2024)", "key": {"[1]": {"tested_on": "A549 (lung adenocarcinoma)", "assay": "MTS cell viability assay, 72 h", "assay_type": "cell-based", "text": "(§1) We then screened STR-V-53 and all the synthesized glycosylated HDACi for their effects on the viability of three cell lines: A549 (lung adenocarcinoma), Hep-G2 (HCC), and VERO (a normal kidney epithelial cell). We used SORA and STR-V-48, a previously disclosed nonglycosylated compound, as controls.[25] […] Additionally, compound STR-V-167, the peracetylated analog of STR-V-53, largely retained the Hep-G2 selectivity of STR-V-53 (Table S2). Subsequently, we evaluated the effects of STR-V-53 on cell proliferation using a panel of human HCC cell lines (Huh-7, SK-Hep-1, and Hep3B) as well as Kupffer cells (liver resident macrophages) by MTS assay. We observed that STR-V-53 is 7- to 16-fold more cytotoxic against these HCC cell lines relative to the Kupffer cells (Figure 1g). […] Based on their weak HDAC and cell proliferation inhibition activities, we de-emphasized further evaluation of the class III compounds.\n(§2) 10-017-CV), supplemented with 10% fetal bovine serum (FBS) (Corning, 35-010-CV). Hep-G2 cells were cultured in phenol red-free Minimum Essential Medium (MEM) (Corning, 17-305-CV), supplemented with 10% fetal bovine serum (FBS). SK-Hep-1 in ATCC-formulated EMEM (ATCC® 30–2003™); Huh-7 in DMEM (containing 4 mM L-glutamine and 1 g/L glucose) with […]\n(§3) Kupffer Cell Media (Sekisui XenoTech, LLC, Cat. #K8700). Cells were seeded into a 96-well plate (2000 counts/100uL) for 24 h prior to treatment and then treated with various drug concentrations for 72 h. All drugs were dissolved in media with DMSO concentration maintained at 1%. The effect of compounds on cell viability was measured using the MTS assay (CellTiter 96 Aqueous One Solution and CellTiter 96 Non-Radioactive Cell Proliferation Assays, Promega, Madison, WI) as described by the manufacturer. IC50s were determined using Prism GraphPad 8. […]"}, "[2]": {"tested_on": "VERO (a normal kidney epithelial cell)", "assay": "MTS cell viability assay, 72 h", "assay_type": "cell-based", "text": "as §1, §2, §3"}, "Hep-G2 cells": {"tested_on": "Hep-G2 cells", "assay": "Immunoblotting of cleaved Caspase 3 and p21WAF/CIP", "assay_type": "cell-based, human", "conditions": "for Caspase 3 cleavage (cleaved Caspase 3/Pro-caspase 3): IC50 or 2× IC50 for 18 h; for p21WAF/CIP level: higher concentrations, 18 h", "procedure": "(§4) Figure 3 Effects of STR-V-53 on intracellular markers of HDAC inhibition, antitumor immune response, and apoptosis. (a) STR-V-53 upregulates the levels of acetylated H4 and tubulin in Hep-G2 cells. Hep-G2 cells were treated with DMSO or 0.1% DMSO solution of SAHA (1.25 μM) and STR-V-53 (1.25 μM, 2.5 μM). Cells were treated for 5 h before lysis. Data are from two independent experiments. (b) STR-V-53 upregulates PD-L1 and downregulates PD-1 expressions in Hep-G2 cells. Cells were treated with DMSO or 0.1% DMSO solution of SAHA (5 μM and 10 μM) and STR-V-53 (10 and 20 μM) for 24 h. (c) STR-V-53 and SAHA caused upregulation of the levels of CD54 in the Hep-G2 cell line. Cells were treated with DMSO or 0.1% DMSO solution of SAHA (5 and 10 μM) and STR-V-53 (5, 10, and 20 μM) for 24 h. […] Cells were treated with DMSO or 0.1% DMSO solution of SAHA (5 μM) and STR-V-53 (10 and 20 μM).\nHDAC inhibition could cause cell apoptosis through caspase cleavage and p21^WAF/CIP upregulation.[37] To probe if our compounds elicit a similar phenotype, we investigated the effects representative examples on the cellular levels of cleaved Caspase 3 and p21^WAF/CIP through immunoblotting."}, "VERO cells": {"tested_on": "VERO cells", "assay": "Immunoblotting of cleaved Caspase 3", "assay_type": "cell-based", "conditions": "same concentrations as in Hep-G2", "procedure": "as §4"}, "HDAC1": {"target": "HDAC1 (Homo sapiens, UniProt Q13547)", "sequence (Q13547 whole entry, canonical isoform)": "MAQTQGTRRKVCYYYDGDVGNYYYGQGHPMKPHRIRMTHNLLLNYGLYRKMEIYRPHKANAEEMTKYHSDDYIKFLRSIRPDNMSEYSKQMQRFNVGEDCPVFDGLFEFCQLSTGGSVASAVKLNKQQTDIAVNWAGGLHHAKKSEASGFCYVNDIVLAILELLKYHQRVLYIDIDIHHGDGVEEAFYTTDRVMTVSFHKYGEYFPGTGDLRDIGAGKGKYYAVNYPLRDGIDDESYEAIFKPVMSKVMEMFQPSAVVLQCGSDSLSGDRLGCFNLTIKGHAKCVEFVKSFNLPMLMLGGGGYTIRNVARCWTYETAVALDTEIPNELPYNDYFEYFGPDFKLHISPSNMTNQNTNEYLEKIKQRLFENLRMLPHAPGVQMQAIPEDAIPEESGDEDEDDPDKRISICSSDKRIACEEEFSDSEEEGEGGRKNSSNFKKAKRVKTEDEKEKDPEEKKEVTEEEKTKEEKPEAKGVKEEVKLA", "assay": "HDAC isoform inhibition (BPS Bioscience)"}, "HDAC2": {"target": "HDAC2 (Homo sapiens, UniProt Q92769)", "sequence (Q92769 whole entry, canonical isoform)": "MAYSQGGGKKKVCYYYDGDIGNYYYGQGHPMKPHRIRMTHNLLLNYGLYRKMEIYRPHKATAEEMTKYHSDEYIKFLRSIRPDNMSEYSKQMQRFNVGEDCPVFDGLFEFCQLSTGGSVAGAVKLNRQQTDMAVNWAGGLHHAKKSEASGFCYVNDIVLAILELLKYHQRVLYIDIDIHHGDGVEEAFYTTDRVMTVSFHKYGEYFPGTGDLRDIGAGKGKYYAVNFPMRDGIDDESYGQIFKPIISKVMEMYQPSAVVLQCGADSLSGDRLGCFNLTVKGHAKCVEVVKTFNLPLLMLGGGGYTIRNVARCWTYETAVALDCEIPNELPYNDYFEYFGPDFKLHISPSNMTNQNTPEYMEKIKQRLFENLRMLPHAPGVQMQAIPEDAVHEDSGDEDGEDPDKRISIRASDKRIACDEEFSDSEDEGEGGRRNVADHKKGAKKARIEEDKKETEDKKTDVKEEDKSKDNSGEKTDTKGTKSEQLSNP", "assay": "HDAC isoform inhibition (BPS Bioscience)"}, "HDAC8": {"target": "T1, HDAC8 (Homo sapiens, UniProt Q9BY41)", "T1 sequence (Q9BY41 1-377)": "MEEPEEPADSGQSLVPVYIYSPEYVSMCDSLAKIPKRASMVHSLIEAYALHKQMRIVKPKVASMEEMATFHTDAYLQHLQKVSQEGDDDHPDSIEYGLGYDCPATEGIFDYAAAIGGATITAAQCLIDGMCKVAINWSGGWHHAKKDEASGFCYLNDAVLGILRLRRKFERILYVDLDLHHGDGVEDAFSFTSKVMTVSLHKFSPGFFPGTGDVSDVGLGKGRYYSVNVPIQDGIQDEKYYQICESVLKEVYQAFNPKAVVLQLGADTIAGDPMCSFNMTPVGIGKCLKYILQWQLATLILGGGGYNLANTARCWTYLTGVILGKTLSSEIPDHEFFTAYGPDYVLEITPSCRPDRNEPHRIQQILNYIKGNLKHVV", "assay": "HDAC isoform inhibition (BPS Bioscience)"}, "[3]": {"conditions": "Table S2, read-out: Anti-proliferation IC50 A549"}, "[4]": {"conditions": "Table S2, read-out: Anti-proliferation IC50 VERO"}}, "note": "Like-named read-outs stand apart in the source and are kept apart here."}
{"smiles": "O=C(CCCCCCn1cc(-c2ccc(O[C@H]3O[C@H](CO)[C@@H](O)[C@H](O)[C@H]3O)cc2)nn1)NO", "note": "[STR-V-53]", "values": [{"measurement": "IC50", "setting": "[1]; Homo sapiens, A549, Figure 1g, read-out: Anti-proliferation effects IC50 (μM) A549", "result": "> 100", "unit": "µM"}, {"measurement": "IC50", "setting": "[2]; Chlorocebus sabaeus, Vero, Figure 1g, read-out: Anti-proliferation effects IC50 (μM) Vero", "result": "> 100", "unit": "µM"}, {"measurement": "Caspase 3 cleavage (cleaved Caspase 3/Pro-caspase 3)", "setting": "Hep-G2 cells", "result": "significant upregulation of cleave Caspase 3/Pro-caspase 3 ratio"}, {"measurement": "p21WAF/CIP level", "setting": "Hep-G2 cells", "result": "upregulated significantly"}, {"measurement": "Caspase 3 cleavage", "setting": "VERO cells", "result": "did not induce cleavage of Caspase 3"}, {"measurement": "IC50", "setting": "HDAC1", "result": 24.3, "unit": "nM"}, {"measurement": "IC50", "setting": "HDAC2", "result": 60.1, "unit": "nM"}, {"measurement": "IC50", "setting": "HDAC8", "result": 843, "unit": "nM"}]}
{"smiles": "O=C(CCCCCCC(=O)Nc1ccccc1)NO", "note": "[SAHA, vorinostat, reference compound]", "values": [{"measurement": "Caspase 3 cleavage (cleaved Caspase 3/Pro-caspase 3)", "setting": "Hep-G2 cells", "result": "showed cleavage of Caspase 3"}, {"measurement": "Caspase 3 cleavage", "setting": "VERO cells", "result": "induced cleavage of Caspase 3"}]}
{"smiles": "O=C(CCCCCCn1cc(-c2ccc(O[C@@H]3O[C@H](CO)[C@@H](O)[C@H](O)[C@H]3O)cc2)nn1)NO", "note": "[STR-I-195]", "values": [{"measurement": "IC50", "setting": "[1]; [3]", "result": "> 100", "unit": "µM"}, {"measurement": "IC50", "setting": "[2]; [4]", "result": "65.5 ± 8.3", "unit": "µM"}, {"measurement": "Caspase 3 cleavage (cleaved Caspase 3/Pro-caspase 3)", "setting": "Hep-G2 cells", "result": "showed cleavage of Caspase 3"}, {"measurement": "p21WAF/CIP level", "setting": "Hep-G2 cells", "result": "upregulated significantly"}, {"measurement": "Caspase 3 cleavage", "setting": "VERO cells", "result": "did not induce cleavage of Caspase 3"}, {"measurement": "IC50", "setting": "HDAC1; read-out: HDAC1 IC50, Table S1", "result": 14.6, "unit": "nM"}, {"measurement": "IC50", "setting": "HDAC2; read-out: HDAC2 IC50, Table S1", "result": 29.1, "unit": "nM"}, {"measurement": "IC50", "setting": "HDAC8; read-out: HDAC8 IC50, Table S1", "result": 464, "unit": "nM"}]}
{"smiles": "O=C(CCCCCCn1cc(-c2ccc3cc(O[C@H]4O[C@H](CO)[C@@H](O)[C@H](O)[C@H]4O)ccc3c2)nn1)NO", "note": "[STR-V-114]", "values": [{"measurement": "IC50", "setting": "[1]; [3]", "result": "77.2 ± 4.3", "unit": "µM"}, {"measurement": "IC50", "setting": "[2]; [4]", "result": "34.1 ± 3", "unit": "µM"}, {"measurement": "IC50", "setting": "HDAC1; read-out: HDAC1 IC50, Table S1", "result": 20.3, "unit": "nM"}, {"measurement": "IC50", "setting": "HDAC2; read-out: HDAC2 IC50, Table S1", "result": 61.5, "unit": "nM"}, {"measurement": "IC50", "setting": "HDAC8; read-out: HDAC8 IC50, Table S1", "result": 2130, "unit": "nM"}]}
